Results: patent US20100056544A1, “Salts with CRTH2 Antagonist Activity” (Oxagen Limited, priority 2007, published 2010)
Like-named read-outs stand apart in the source and are kept apart here.

Columns and labels:
[1] = cited from earlier work; for pKa of base: Table 5; for pKa 1: pKa value of base, Tables 2-4
[2] = Solubility of the salts in water determined by HPLC, with pH of the filtered mixtures; settings: for Solubility: HPLC grade water, stirred 18 hours at 15 to 25° C., filtered, HPLC
[3] = basic solubility screen of Compound 1 free acid in solvents; format: physicochemical; settings: for Solution Yes/No 20 vol R.T.: 50 mg, stirred at 15 to 25° C.
[4] = pH of the filtered mixtures in water

Compound: OCCN1CCCC1 [1-(2-Hydroxyethyl)pyrrolidine]
- pKa of base [1]: 9.4
- pKa 1 [1]: 9.4

Compound: OCCN1CCOCC1 [4-(2-Hydroxyethyl)morpholine]
- pKa of base [1]: 7.4
- pKa 1 [1]: 7.4

Compound: Cc1c(Cc2ccc3ccccc3n2)c2cc(F)ccc2n1CC(=O)O [Ammonium, (5-fluoro-2-methyl-3-quinolin-2-ylmethyl-indol-1-yl)acetic acid]
- pH [2]: 8
- Solubility [2]: 4.98 mg/mL

Compound: C[N+](C)(C)CC(=O)O [Betaine]
- pKa of base [1]: 12.2

Compound: C[N+](C)(C)CCO [Choline]
- pKa of base [1]: >11
- pKa 1 [1]: >11

Compound: Cc1c(Cc2ccc3ccccc3n2)c2cc(F)ccc2n1CC(=O)O [Compound 1, (5-fluoro-2-methyl-3-quinolin-2-ylmethyl-indol-1-yl)acetic acid]
- solubility in NMP (50 mg retained in 20 vol) ([3]; NMP at 15 to 25° C. after obtaining a solution at 100° C.): ≥ 50 mg per ml
- Solution Yes/No 20 vol reflux ([3]; solvent Acetone): No
- Solution Yes/No 40 vol reflux ([3]; solvent Acetone): No
- Solution on cooling to R.T. ([3]; solvent Acetone): No
- Solution Yes/No 20 vol R.T. ([3]; solvent Acetone): No
- Solution Yes/No 20 vol reflux ([3]; solvent Acetonitrile): No
- Solution Yes/No 40 vol reflux ([3]; solvent Acetonitrile): No
- Solution on cooling to R.T. ([3]; solvent Acetonitrile): No
- Solution Yes/No 20 vol R.T. ([3]; solvent Acetonitrile): No
- Solution Yes/No 20 vol reflux ([3]; solvent Chloroform): No
- Solution Yes/No 40 vol reflux ([3]; solvent Chloroform): No
- Solution on cooling to R.T. ([3]; solvent Chloroform): No
- Solution Yes/No 20 vol R.T. ([3]; solvent Chloroform): No
- Solution on cooling to R.T. ([3]; solvent DMF): No
- Solution Yes/No 20 vol R.T. ([3]; solvent DMF): No
- Solution Yes/No 20 vol reflux ([3]; solvent DMF, heated to 100° C.): No
- Solution Yes/No 40 vol reflux ([3]; solvent DMF, heated to 100° C.): Yes
- Solution on cooling to R.T. ([3]; solvent DMSO): No
- Solution Yes/No 20 vol R.T. ([3]; solvent DMSO): No
- Solution Yes/No 20 vol reflux ([3]; solvent DMSO, heated to 100° C.): Yes
- Solution Yes/No 20 vol reflux ([3]; solvent Ethanol): No
- Solution Yes/No 40 vol reflux ([3]; solvent Ethanol): No
- Solution on cooling to R.T. ([3]; solvent Ethanol): No
- Solution Yes/No 20 vol R.T. ([3]; solvent Ethanol): No
- Solution Yes/No 20 vol reflux ([3]; solvent Ethyl acetate): No
- Solution Yes/No 40 vol reflux ([3]; solvent Ethyl acetate): No
- Solution on cooling to R.T. ([3]; solvent Ethyl acetate): No
- Solution Yes/No 20 vol R.T. ([3]; solvent Ethyl acetate): No
- Solution Yes/No 20 vol reflux ([3]; solvent Heptanes): No
- Solution Yes/No 40 vol reflux ([3]; solvent Heptanes): No
- Solution on cooling to R.T. ([3]; solvent Heptanes): No
- Solution Yes/No 20 vol R.T. ([3]; solvent Heptanes): No
- Solution Yes/No 20 vol reflux ([3]; solvent IPA): No
- Solution Yes/No 40 vol reflux ([3]; solvent IPA): No
- Solution on cooling to R.T. ([3]; solvent IPA): No
- Solution Yes/No 20 vol R.T. ([3]; solvent IPA): No
- Solution Yes/No 20 vol reflux ([3]; solvent Methanol): No
- Solution Yes/No 40 vol reflux ([3]; solvent Methanol): No
- Solution on cooling to R.T. ([3]; solvent Methanol): No
- Solution Yes/No 20 vol R.T. ([3]; solvent Methanol): No
- Solution on cooling to R.T. ([3]; solvent NMP): Yes
- Solution Yes/No 20 vol R.T. ([3]; solvent NMP): No
- Solution Yes/No 20 vol reflux ([3]; solvent NMP, heated to 100° C.): Yes
- Solution Yes/No 20 vol reflux ([3]; solvent TBME): No
- Solution Yes/No 40 vol reflux ([3]; solvent TBME): No
- Solution on cooling to R.T. ([3]; solvent TBME): No
- Solution Yes/No 20 vol R.T. ([3]; solvent TBME): No
- Solution Yes/No 20 vol reflux ([3]; solvent Toluene): No
- Solution Yes/No 40 vol reflux ([3]; solvent Toluene): No
- Solution on cooling to R.T. ([3]; solvent Toluene): No
- Solution Yes/No 20 vol R.T. ([3]; solvent Toluene): No
- Solution Yes/No 20 vol reflux ([3]; solvent Water): No
- Solution Yes/No 40 vol reflux ([3]; solvent Water): No
- Solution on cooling to R.T. ([3]; solvent Water): No
- Solution Yes/No 20 vol R.T. ([3]; solvent Water): No
- Solubility ([3]; variety of solvents (Table 1), organic solvent or mixture, thermodynamic from solid): < 25 mg/mL
- Solubility [2]: 0.05 mg/mL
- pH [2, 4]: 7

Compound: c1c[nH]cn1 [Imidazole]
- pKa of base [1]: 7
- pKa 1 [1]: 7

Compound: CNC[C@H](O)[C@@H](O)[C@H](O)[C@H](O)CO [N-methyl Glucamine]
- pKa of base [1]: 8

Compound: Cc1c(Cc2ccc3ccccc3n2)c2cc(F)ccc2n1CC(=O)O [Potassium, (5-fluoro-2-methyl-3-quinolin-2-ylmethyl-indol-1-yl)acetic acid]
- pKa of base [1]: 14.0
- Solubility [2]: 32.36 mg/mL
- pH [2, 4]: 12
- pH ([2]; pH of the filtered mixtures in water, listed as potassium): 12

Compound: Cc1c(Cc2ccc3ccccc3n2)c2cc(F)ccc2n1CC(=O)O [Sodium, (5-fluoro-2-methyl-3-quinolin-2-ylmethyl-indol-1-yl)acetic acid]
- pKa of base [1]: 14.0
- Solubility [2]: 84.28 mg/mL
- pH [2, 4]: 9
- solubility in water compared (in words) ([2]; water): most soluble

Compound: Cc1c(Cc2ccc3ccccc3n2)c2cc(F)ccc2n1CC(=O)O [Tris, (5-fluoro-2-methyl-3-quinolin-2-ylmethyl-indol-1-yl)acetic acid]
- pKa of base [1]: 8
- Solubility [2]: 3.26 mg/mL
- pH [2, 4]: 9

Compound: Deanol
- pKa of base [1]: 8.8
- pKa 1 [1]: 8.8
